In patent US7625894B2, “Pyrrolo[2,3-d]Pyrimidines as Protein Tyrosine Kinase Inhibitors” (Novartis AG, priority 2004, dated 2009) one finds melting point data, which are given here for eight compounds.

As a reminder, the melting point is the temperature, or range, at which the solid turns liquid. The compound `CCCN(C)c1ncnc2[nH]c(-c3ccc(CN4CCN(C)CC4)cc3)cc12` [Example 1, methyl-{6-[4-(4-methyl-piperazin-1-ylmethyl)phenyl]-7H-pyrrolo[2,3-d]pyrimidin-4-yl}-propylamine] gave a melting point of 220 to 221 °C.
With `CN1CCN(C(=O)c2ccc(-c3cc4c(N5CCN(C)CC5)ncnc4[nH]3)cc2)CC1` [Example 8, (4-Methyl-piperazin-1-yl)-{4-[4-(4-methyl-piperazin-1-yl)-7H-pyrrolo[2,3-d]pyrimidin-6-yl]-phenyl}-methanone], the melting point lay in the range of 243 to 245 °C.
`CNC(=O)c1ccc(-c2cc3c(NC)ncnc3[nH]2)cc1` [Example 21, N-Methyl-4-(4-methylamino-7H-pyrrolo[2,3-d]pyrimidin-6-yl)-benzamide] had a melting point of over 300 °C.
On to `CN(C)CCNc1ncnc2[nH]c(-c3ccc(C(=O)N4CCN(C)CC4)cc3)cc12` [Example 22, {4-[4-(2-Dimethylamino-ethylamino)-7H-pyrrolo[2,3-d]pyrimidin-6-yl]-phenyl}-(4-methyl-piperazin-1-yl)-methanone], for which the melting point was 268 to 270 °C.
`CCCCOCc1ccc(-c2cc3c(N(C)C)ncnc3[nH]2)cc1` [Example 26, [6-(4-Butoxymethyl-phenyl)-7H-pyrrolo[2,3-d]pyrimidin-4-yl]-dimethyl-amine] showed a melting point of 186 to 188 °C.
`CCC(O)(CC)c1ccc(-c2cc3c(NCCCN4CCOCC4)ncnc3[nH]2)cc1` [Example 30] registered a melting point of 175 to 177 °C.
Regarding `COCCN(CCOC)c1ncnc2[nH]c(-c3ccc(C(C)(C)O)cc3)cc12` [Example 31, 2-(4-{4-[Bis-(2-methoxy-ethyl)-amino]-7H-pyrrolo[2,3-d]pyrimidin-6-yl}-phenyl)-propan-2-ol], the melting point lay within 165 to 167 °C.
As for `CCC(O)(CC)c1ccc(-c2cc3c(N(CCOC)CCOC)ncnc3[nH]2)cc1` [Example 32, 3-(4-{4-[Bis-(2-methoxy-ethyl)-amino]-7H-pyrrolo[2,3-d]pyrimidin-6-yl}-phenyl)-pentan-3-ol], the melting point was in the range of 83 to 85 °C.
